Reference: patent publication US20030216471A1, “Retinoid formulations for aerosolization and inhalation” (priority 2003, published 2003)
Read-outs that look alike come from different tables or passages of the source.

Legend:
[1] = system: TGase II; assay: TGase II activity in cultured human breast cancer MCF-7 cells; type: cell-based; settings: MCF-7 cells, 10^−6 M, 72 hours, over DMSO
Description: Cells were harvested and Transglutaminase II activity was measured as described below. Nebulizer solution, inhalation procedures, details of animal housing are described below.
Cultured cells were placed in 100 μl scraping buffer [A: 2800 μl (400 μl 0.5M Na-Phosphate, 500 μl 0.01M EDTA, 100 μl 1M DTT, 9 ml PBS total 10 ml)+B:700 μl (10 μl 20 mg/ml PMSF 790 μl PBS total 800 μl)] for each dish. Cells were broken by a sonicator and kept in ice until used. TGase II assay was conducted as described below and previously {8217}.
Enzyme assay mixtures were prepared by adding 80 μl of SUBSTRATE mixture (322.8 μl H2O, 120 μl 0.5M NaBorate, 60 μl 0.01M EDTA, 60 μl 0.1M CaCl2, 6 μl 1M DTT, 240 μl dimethyl casein, 30 μl Triton X-100, 1.21 μl [^3H]-Putrescine, 120 μl Putrescine) to 20 μl sample, 20 μl scraping buffer for blank control, 20 μl (18 μl scraping buffer+2 μl TGase II) for positive control. Samples were mixed in 15 ml tubes, the tubes were shaken before putting them into a 28° C. water bath for 30 minutes. Reactions were slowed down in an ice bath. 80 μl of the incubation mixture was adsorbed onto paper disks. These were immediately dropped into cold 10% TCA (0.1% Putrescine) and washed with agitation for 7 minutes, followed by 2 additional washes with 5% TCA (0.05% putrescine) for 5-7 minutes, and once more with cold (−20° C.) 95% ethanol for 5 minutes. Paper disks were dried and placed into 5 ml Aquasol, and counted in a Liquid Scintillation Counter. Protein concentration determination was conducted by the Bradford method.

[2] = system: RAR α; assay: Western blot of rat lung, inhaled 13-cis RA (experiment A), RAR α; type: in vivo; settings: for upregulation of lung tissue RAR (first named, α): daily deposited dose 6.4 mg/kg/day
Description: (§1) The experimental groups were as follows (Table 4):1. Vehicle (10/9 mix of PEG 300 and Ethanol with 0.5% of ascorbic acid and 0.5% phosphatidyl choline) control, day 1: rats (19) inhaled vehicle for 2 hr for one day; 2. […] Vehicle control, day 28: rats (16) inhaled vehicle as for group 1 for a period of 28 days; 5.
(§2) Tissues were collected, frozen in dry ice and kept at −70° C. until used. 500 mg aliquots were diced in small pieces and homogenized in 300 μl of cold PBS, using the hand held homogenizer for 2˜3 minutes. Sample and washes were centrifuged at 5000×g for 20 minutes. The pellet was suspended in 400 μl of ice-cold Buffer A [2 μl 0.5M EDTA, 10 μl 100 mM EGTA, 50 μl 100MM PMSF, 10 μl 1M DTT, 10 ml (10 mM HEPES pH 7.9+10 mM KCl)], and left at ice temperature for 15 minutes. 25 μl of 10% solution of NP-40 was added and samples were mixed in a vortex vigorously for 10 seconds. Samples were centrifuged at 14,000×g for 1 minute at 4° C. and the pellet treated once more in this fashion (resuspended etc.). The supernatant was removed and 100 μl of ice-cold Buffer C [4 μl 0.5M EDTA, 20 μl 100 mM EGTA, 20 μl 100 mM PMSF, 2 μl 1M DTT, 2 ml (20 mM HEPES pH 7.9+0.4M NaCl)] was added. Pellets were resuspended by tapping gently on the bottom of the Eppendorf tubes. Samples were rocked vigorously in a bucket of ice on an orbital shaker for 30 minutes. Samples were centrifuged at 14,000×g for 5 minutes at 4° C.
(§3) Samples were prepared by adding one part of the Sample Buffer to one part of the sample and mixing well. Samples were heated at 95° C. for 5 minutes to induce denaturation. 5 μl of Rainbow Standard and 5 μl of Biotinylated Molecular Marker were added to parallel wells. 20 μg protein per sample was loaded in each lane. Electrophoresis was performed with voltage set at 125V for about 1˜1.5 hours. Gel transfer was executed at 25V for 2 hours. The membrane was stained in Ponceau S. for 5 minutes and destained with one wash of 5% acetic acid. The membrane was then washed in TBS solution until the staining disappeared. […]

[3] = system: RAR γ; assay: Western blot of rat lung, inhaled 13-cis RA (experiment A), RAR γ; type: in vivo; settings: for upregulation of lung tissue RAR (third named, γ): daily deposited dose 6.4 mg/kg/day
Description: as §1, §2, §3

[4] = system: A/J mouse; settings: cited from earlier work; for Efficacy (Carcinogen): 20 weeks, urethane
[5] = daily deposited dose 1.9 mg/kg/day, day 28

SMILES: CC1=C(/C=C/C(C)=C/C=C/C(C)=C\C(=O)O)C(C)(C)CCC1 [13-cis RA, 13-cis-Retinoic Acid]
- stimulating TGase II activity [1]: 6.1 Fold
- induction of lung RAR (first named, α) [2, 5]: 4.7 fold
- upregulation of lung tissue RAR (first named, α) ([2]; day 1): 3.4 fold
- upregulation of lung tissue RAR (first named, α) ([2]; day 17): 4.2 fold
- induction of lung RAR (third named, γ) [3, 5]: 8.1 fold
- upregulation of lung tissue RAR (third named, γ) ([3]; day 1): 9.7 fold
- upregulation of lung tissue RAR (third named, γ) ([3]; day 17): 12.9 fold
- Efficacy (Carcinogen) ([4]; 200 mg/kg weekly ingested (po)): No (urethane)
- Efficacy (Carcinogen) ([4]; 400 mg/kg weekly ingested (po)): No (urethane)
- prevention of urethane-induced lung cancer ([4]; orally administered, over 300 mg/kg weekly, A/J mouse model): failed to prevent
